In experiment [1] the target is T1, T1R2 monomer (Homo sapiens, UniProt Q8TE23).
T1 construct: expressed in transfected cells; host or cells: HEK293T cells stably expressing G16gust44
T1 sequence (Q8TE23 20-839): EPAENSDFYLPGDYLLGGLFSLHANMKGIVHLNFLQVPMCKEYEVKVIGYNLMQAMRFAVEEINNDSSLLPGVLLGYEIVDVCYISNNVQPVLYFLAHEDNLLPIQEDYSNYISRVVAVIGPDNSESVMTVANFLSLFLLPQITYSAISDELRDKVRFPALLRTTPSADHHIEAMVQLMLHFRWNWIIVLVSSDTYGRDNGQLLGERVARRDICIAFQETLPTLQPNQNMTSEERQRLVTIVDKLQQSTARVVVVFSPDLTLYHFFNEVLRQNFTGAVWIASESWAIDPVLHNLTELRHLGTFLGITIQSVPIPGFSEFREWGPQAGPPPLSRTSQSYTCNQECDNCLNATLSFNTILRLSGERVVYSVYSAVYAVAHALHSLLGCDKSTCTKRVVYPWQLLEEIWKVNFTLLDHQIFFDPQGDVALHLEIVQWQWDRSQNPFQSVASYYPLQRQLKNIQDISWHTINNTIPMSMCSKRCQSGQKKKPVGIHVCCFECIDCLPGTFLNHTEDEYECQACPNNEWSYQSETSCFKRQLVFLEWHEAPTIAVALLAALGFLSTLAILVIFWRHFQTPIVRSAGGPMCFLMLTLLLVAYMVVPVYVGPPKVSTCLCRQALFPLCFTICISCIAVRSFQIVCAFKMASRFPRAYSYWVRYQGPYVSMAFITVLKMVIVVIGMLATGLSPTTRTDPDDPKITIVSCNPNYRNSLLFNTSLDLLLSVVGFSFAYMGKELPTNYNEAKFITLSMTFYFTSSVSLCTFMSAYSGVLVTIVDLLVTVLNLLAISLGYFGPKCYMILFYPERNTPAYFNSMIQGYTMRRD
As to the kind of experiment: Fluo-4 calcium assay, HEK293T/G16gust44 cells transiently transfected with T1R2 monomer. The experiment is classed as cell-based. The source says: (§1) All examples use the human receptors.
(§2) HEK293 cells stably expressing G alpha 16-gustducin 44 and transfected as described in example 2, 3 or 4 were used as host cells.
(§3) To form a T1R2 vector construct, cDNA fragments containing the entire protein coding sequences for human T1R2 and T1R3 were isolated from a human fungiform cDNA library, fully sequenced and then subcloned into pcDNA3.1 (Invitrogen).

The target of a further experiment is T2, T1R2/T1R3 dimer (Homo sapiens, UniProt Q7RTX0+Q8TE23).
T2 construct: expressed in transfected cells; host or cells: HEK293T cells stably expressing G16gust44
T2 sequence (Q8TE23 20-839): T1 sequence (Q8TE23 20-839)
T2 sequence (Q7RTX0 21-852): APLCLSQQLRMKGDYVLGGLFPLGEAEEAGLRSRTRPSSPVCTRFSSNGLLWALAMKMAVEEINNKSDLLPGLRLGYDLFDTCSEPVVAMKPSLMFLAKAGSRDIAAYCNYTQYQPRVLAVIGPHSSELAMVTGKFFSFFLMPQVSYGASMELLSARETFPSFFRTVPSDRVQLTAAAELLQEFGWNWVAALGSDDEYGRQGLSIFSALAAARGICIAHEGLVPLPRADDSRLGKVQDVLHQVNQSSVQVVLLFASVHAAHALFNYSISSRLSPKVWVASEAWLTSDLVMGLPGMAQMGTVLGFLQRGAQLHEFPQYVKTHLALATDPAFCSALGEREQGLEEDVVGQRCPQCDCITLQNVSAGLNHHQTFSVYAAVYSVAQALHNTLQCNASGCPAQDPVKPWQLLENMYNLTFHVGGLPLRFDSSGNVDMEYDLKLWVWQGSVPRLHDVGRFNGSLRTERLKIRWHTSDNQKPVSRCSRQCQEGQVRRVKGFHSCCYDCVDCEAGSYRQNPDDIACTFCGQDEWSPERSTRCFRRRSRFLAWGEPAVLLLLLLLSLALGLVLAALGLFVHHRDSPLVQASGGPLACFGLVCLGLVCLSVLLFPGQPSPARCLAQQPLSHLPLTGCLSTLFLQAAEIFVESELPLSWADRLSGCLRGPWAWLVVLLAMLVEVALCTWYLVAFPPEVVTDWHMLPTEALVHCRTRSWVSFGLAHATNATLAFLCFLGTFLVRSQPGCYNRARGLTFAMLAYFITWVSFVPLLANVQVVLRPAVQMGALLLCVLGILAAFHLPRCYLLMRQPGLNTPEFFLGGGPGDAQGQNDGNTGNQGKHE
As to the kind of experiment: Fluo-4 calcium assay, HEK293T/G16gust44 cells transiently transfected with T1R2 and T1R3. The experiment is classed as cell-based.
Excerpt: as §1, §2, §3

In another experiment the target is T3, T1R3 monomer (Homo sapiens, UniProt Q7RTX0).
T3 construct: expressed in transfected cells; host or cells: HEK293T cells stably expressing G16gust44
T3 sequence (Q7RTX0 21-852): T2 sequence (Q7RTX0 21-852)
As to the kind of experiment: Fluo-4 calcium assay, HEK293T/G16gust44 cells transiently transfected with T1R3 monomer. The experiment is classed as cell-based. The following applies: 50 μM perillartine, mean of six replicates.
Excerpt: as §1, §2, §3

In experiment [2] the test system is cells expressing G16gust44 only. As to the kind of experiment: Calcium flux assay (FLIPR), non-transfected cells expressing G16gust44 only. The experiment is classed as cell-based. The following applies: 50 μM perillartine. As to the method: (§4) For results, see table below. The signal average of the experiment is given, as well as the standard deviation (STD) in RFU. Two clones were analysed. Non-transfected cells expressing G16gust44 only serve as a general negative control.
(Calcium assays in cells follow changes in intracellular calcium, usually with a dye or a luminescent sensor.)

For experiment [3], the target named is T1, T1R2 monomer. Description: Calcium flux assay (FLIPR), clonal cell lines stably expressing T1R2 and G16gust44. The experiment is classed as cell-based. The following applies: 50 μM perillartine. On the procedure:
as §1
A human T1R2/pcDNA4-Zeocin construct was linearized by digesting 5 ug with Pvu II and then purified using the Wizard DNA Clean-Up System (Promega). The DNA was transfected using the Lipofectamine 2000 reagent into cells that already stably express the G16gust44 G-protein (formed as described in WO 2004/055048).
as §4

Experiment [4] relates to mock transfected cells expressing only the G16gust44 chimeric G-protein. Description: Fluo-4 calcium assay, mock transfected cells expressing only G16gust44 (negative control cells). It counts as cell-based, human. The following applies: 50 μM perillartine, mean of six replicates.
Excerpt: as §2

Setting [5] is: 50 μM perillartine, mean of six replicates.

Residues, ends and D or L forms follow the SMILES beside them.

Take `COC(=O)[C@H](Cc1ccccc1)NC(=O)[C@@H](N)CC(=O)O` [aspartame] (H-Asp-Phe-OMe): the “calcium signal compared with negative controls (mock transfected cells)” value on T1R2 monomer [1] was “not significantly above the signals observed for the negative controls”. Moreover, the calcium signal intensity entry at T1R2/T1R3 dimer was “strong signals comparable to the signal intensity of perillartine”.

With `C=C(C)[C@@H]1CC=C(/C=N/O)CC1` [perillartine], the “SIGNAL AVERAGE (net increase in fluorescence over baseline)” value is given as 165.6 RFU on T1R3 monomer, 944.9 RFU at T1R2 monomer [1] (setting [5]), 1279.6 RFU at T1R2/T1R3 dimer (setting [5]) and 353.5 RFU in experiment [4]. Further, the Signal average in experiment [2] came out at 368.71 RFU; at T1R2 monomer [3] (T1R2/G16gust44 CLONE 2), 4336.25 RFU; on T1R2 monomer [3] (T1R2/G16gust44 CLONE 4), 5288.47 RFU. Also, at T1R2 monomer [3] (clonal cell lines stably expressing T1R2 monomer), the “perillartine-dependent signal relative to negative control cells expressing only G16gust44” value is reported as “at least 10 fold”.

For the compound `OC[C@H]1O[C@H](O[C@]2(CCl)O[C@H](CCl)[C@@H](O)[C@@H]2O)[C@H](O)[C@@H](O)[C@H]1Cl` [sucralose], on T1R2 monomer [1], the “calcium signal compared with negative controls (mock transfected cells)” value is recorded as “not significantly above the signals observed for the negative controls”. The calcium signal intensity entry at T1R2/T1R3 dimer is “strong signals comparable to the signal intensity of perillartine”.

With `N[C@H](Cc1c[nH]c2ccccc12)C(=O)O` [D-tryptophan], the “calcium signal compared with negative controls (mock transfected cells)” value on T1R2 monomer [1] is given as “not significantly above the signals observed for the negative controls”. For the same compound, on T1R2/T1R3 dimer, the calcium signal intensity result is on record as “strong signals comparable to the signal intensity of perillartine”.

`C=C1C[C@@]23CC[C@H]4[C@@](C)(CCC[C@@]4(C)C(=O)O[C@@H]4O[C@H](CO)[C@@H](O)[C@H](O)[C@H]4O)[C@@H]2CC[C@]1(O[C@@H]1O[C@H](CO)[C@@H](O)[C@H](O)[C@H]1O[C@@H]1O[C@H](CO)[C@@H](O)[C@H](O)[C@H]1O)C3` [stevioside]: the “calcium signal compared with negative controls (mock transfected cells)” value at T1R2 monomer [1] is listed as “not significantly above the signals observed for the negative controls”. For the same compound, on T1R2/T1R3 dimer, the calcium signal intensity result is given as “strong signals comparable to the signal intensity of perillartine”.

The values above are taken from US8124360B2, “Use of a T1R2 nucleic acid sequence to identify tastants” (Givaudan S.A., priority 2006, dated 2012).
